In US20150306096A1, “8'-HYDROXY-DIHYDROERGOTAMINE COMPOUNDS AND COMPOSITIONS” (MAP Pharmaceuticals, Inc., priority 2012, published 2015):

Test system: Somatostatin (SST1~SST5)
Test: GTPγS assay
Type: biochemical, human
Settings: Somatostatin receptors
Description: Additional receptor agonist/agonist activity assessments were performed using the 8′-OH DHE test compound. Table 12 contains a summary of the cell lines (CHO-K1/HEK293 transfected with relevant human receptor) and the assays performed to detect any agonist or antagonist activity.
Reagents used were the following: Assay buffer (20 mM HEPES, pH 7.4; 100 mM NaCl; 10 mg/mL saponin; 30 mM MgCl2); Membranes (recombinant human receptor membrane extracts were thawed on ice and diluted in assay buffer to give […] (10 μgμL) and kept on ice); GDP (diluted in assay buffer to give 30 μM solution (3 μM final concentration); beads (PVT-WGA (Amersham, RPNQ001), diluted in assay buffer at 25 mg/mL (0.25 mg/10 μL)); GTPγ^35S (Perkin Elmer, NEG030X), diluted in assay buffer to give 0.1 nM (final concentration); and ligand (agonist/antagonist diluted in assay buffer).
Membranes were mixed with GDP (1:1) and incubated for at least 15 minutes on ice. In parallel, GTPγ^35S was mixed with the beads (1:1) just before starting the reaction. […] The plates were then centrifuged for 10 minutes at 2,000 rpm and incubated at RT for 1 hour and counted for 1 min/well with a Perkin Elmer TopCount reader.

CN1C[C@H](C(=O)N[C@]2(C)O[C@@]3(O)[C@@H]4CCC(O)N4C(=O)[C@H](Cc4ccccc4)N3C2=O)C[C@@H]2c3cccc4[nH]cc(c34)C[C@H]21 (stereo partly shown) [8′-OH DHE, 8′-Hydroxy-Dihydroergotamine]
Activity (Agonism: EC50; Antagonism: IC50): Inactive
